# Experiments:
# Assay in all cases: Ba/F3 cell drug screening, Cell Titer Glo
# Type in all cases: cell-based
# [1] = target: T1, EGFR E709A (Homo sapiens, UniProt P00533, E709A); settings: Ba/F3 cells expressing EGFR E709A; 72 hours
# T1 construct: expressed in transfected cells; host or cells: Ba/F3 (retroviral transduction, pBabe-Puro based vectors)
# Outline: (§1)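 Seven-dose TKI treatment, 72 h, of sorted EGFR-mutant Ba/F3 cells in EGF-supplemented medium; CellTiter-Glo read-out normalized to vehicle. Curve-fit IC50 from technical triplicates across duplicate or triplicate biological repeats.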
# [2] = target: T2, EGFR E709A G719S (Homo sapiens, UniProt P00533, E709A/G719S); settings: Ba/F3 cells expressing EGFR E709A G719S; 72 hours
# T2 construct: expressed in transfected cells; host or cells: Ba/F3 (retroviral transduction, pBabe-Puro based vectors)
# Outline: as §1
# [3] = target: T3, EGFR E709K G719S (Homo sapiens, UniProt P00533, E709K/G719S); settings: Ba/F3 cells expressing EGFR E709K G719S; 72 hours
# T3 construct: expressed in transfected cells; host or cells: Ba/F3 (retroviral transduction, pBabe-Puro based vectors)
# Outline: as §1
# [4] = target: T4, EGFR E709_T710del insD (Homo sapiens, UniProt P00533, DEL709-709/T710D); settings: Ba/F3 cells expressing EGFR E709_T710del insD; 72 hours
# T4 construct: expressed in transfected cells; host or cells: Ba/F3 (retroviral transduction, pBabe-Puro based vectors)
# Outline: as §1
# [5] = target: T5, EGFR Ex19del G796S (Homo sapiens, UniProt P00533, DEL746-750/G796S); settings: Ba/F3 cells expressing EGFR Ex19del G796S; 72 hours
# T5 construct: expressed in transfected cells; host or cells: Ba/F3 (retroviral transduction, pBabe-Puro based vectors)
# Outline: as §1
# [6] = target: T6, EGFR Ex19del L718Q (Homo sapiens, UniProt P00533, DEL746-750/L718Q); settings: Ba/F3 cells expressing EGFR Ex19del L718Q; 72 hours
# T6 construct: expressed in transfected cells; host or cells: Ba/F3 (murine pro-B cells), retroviral transduction with pBabe-Puro based vectors
# Outline: as §1
# [7] = target: T7, EGFR G719A L861Q (Homo sapiens, UniProt P00533, G719A/L861Q); settings: Ba/F3 cells expressing EGFR G719A L861Q; 72 hours
# T7 construct: expressed in transfected cells; host or cells: Ba/F3 (retroviral transduction, pBabe-Puro based vectors)
# Outline: as §1
# [8] = target: T8, EGFR K757R (Homo sapiens, UniProt P00533, K757R); settings: Ba/F3 cells expressing EGFR K757R; 72 hours
# T8 construct: expressed in transfected cells; host or cells: Ba/F3 (retroviral transduction, pBabe-Puro based vectors)
# Outline: as §1
# [9] = target: T9, EGFR L747S (Homo sapiens, UniProt P00533, L747S); settings: Ba/F3 cells expressing EGFR L747S; 72 hours
# T9 construct: expressed in transfected cells; host or cells: Ba/F3 (retroviral transduction, pBabe-Puro based vectors)
# Outline: as §1
# [10] = target: T10, EGFR L747_K754del insATSPE (Homo sapiens, UniProt P00533, DEL747-749/K754E); settings: Ba/F3 cells expressing EGFR L747_K754del insATSPE; 72 hours
# T10 construct: expressed in transfected cells; host or cells: Ba/F3 (retroviral, pBabe-Puro based vector)
# Outline: as §1
# [11] = target: T11, EGFR L858R/C797S (Homo sapiens, UniProt P00533, C797S/L858R); settings: Ba/F3 cells expressing EGFR L858R/C797S; 72 hours
# T11 construct: expressed in transfected cells; host or cells: Ba/F3 (retroviral transduction, pBabe-Puro based vectors)
# Outline: as §1
# [12] = target: T12, EGFR L858R/L718V (Homo sapiens, UniProt P00533, L718V/L858R); settings: Ba/F3 cells expressing EGFR L858R/L718V; 72 hours
# T12 construct: host or cells: Ba/F3 (retroviral transduction, pBabe-Puro based vectors)
# Outline: as §1
# [13] = target: T13, EGFR L858R/T790M/L718Q (Homo sapiens, UniProt P00533, L718Q/L858R/T790M); settings: Ba/F3 cells expressing EGFR L858R/T790M/L718Q; 72 hours
# T13 construct: expressed in transfected cells; host or cells: Ba/F3 (retroviral transduction, pBabe-Puro based vectors)
# Outline: as §1
# [14] = target: T14, EGFR N771dupN G724S (Homo sapiens, UniProt P00533, DUP771-771/G724S); settings: Ba/F3 cells expressing EGFR N771dupN G724S; 72 hours
# T14 construct: expressed in transfected cells; host or cells: Ba/F3 (retroviral, pBabe-Puro based vector; created by GeneScript from EGFR G724S, c.2313_2314insAAC)
# Outline: as §1
# [15] = target: T15, EGFR S784F (Homo sapiens, UniProt P00533, S784F); settings: Ba/F3 cells expressing EGFR S784F; 72 hours
# T15 construct: expressed in transfected cells; host or cells: Ba/F3 (retroviral, pBabe-Puro based vector; created by GeneScript from EGFR WT)
# Outline: as §1
smiles,measurement,setting,value
C=CC(=O)N1CCC(Oc2cc3c(Nc4ccc(Cl)c(Cl)c4F)ncnc3cc2OC)CC1 [Poziotinib],Response of Cells Comprising PACC EGFR Mutations to Second-Generation TKIs,[1],0.02334
same,Response of Cells Comprising PACC EGFR Mutations to Second-Generation TKIs,[2],0.01612
same,Response of Cells Comprising PACC EGFR Mutations to Second-Generation TKIs,[3],0.01609
same,Response of Cells Comprising PACC EGFR Mutations to Second-Generation TKIs,[4],0.06231
same,Response of Cells Comprising PACC EGFR Mutations to Second-Generation TKIs,[5],0.2054
same,Response of Cells Comprising PACC EGFR Mutations to Second-Generation TKIs,[6],0.107
same,Response of Cells Comprising PACC EGFR Mutations to Second-Generation TKIs,[7],0.09492
same,Response of Cells Comprising PACC EGFR Mutations to Second-Generation TKIs,[8],0.07563
same,Response of Cells Comprising PACC EGFR Mutations to Second-Generation TKIs,[9],0.01641
same,Response of Cells Comprising T790M-like-S EGFR Mutations to Second-Generation TKIs,[10],0.8493
same,Response of Cells Comprising PACC EGFR Mutations to Second-Generation TKIs,[11],0.2299
same,Response of Cells Comprising PACC EGFR Mutations to Second-Generation TKIs,[12],0.01621
same,Response of Cells Comprising T790M-like-R EGFR Mutations to Second-Generation TKIs,[13],70.12
same,Response of Cells Comprising Ex20ins EGFR Mutations to Poziotinib,[14],0.2167
same,Response of Cells Comprising Classical-Like EGFR Mutations to Second-Generation TKIs,[15],0.08572

# From patent US20240108623A1, “METHODS OF TREATING CANCER WITH POZIOTINIB” (BOARD OF REGENTS, THE UNIVERSITY OF TEXAS SYSTEM, priority 2021, published 2024)
